Assay results reported in article PMC6430037 (Heliyon, 2019).
“Also recorded” adds a separate entry of the source. Where a name gives a salt, the structure may show the parent alone. Read-outs that look alike come from different tables or passages of the source.

Key:
mice [1] = conditions: cited from earlier work
mice [2] = conditions: cited from earlier work; remark: listed apart in the source
[3] = tested on: BDZ-bs of the GABAA receptor; test: [3H]-FNZ radioligand binding assay; conditions: [3H]-FNZ displacement, compound at 300 μM, rat cerebral cortex membranes
5-HT1A receptor = target: T1, 5-HT1A receptor (Rattus norvegicus, UniProt P19327); test: [3H]-8-OH-DPAT radioligand binding assay; conditions: for inhibition at 300 µM: read-out: 5-HT1A Binding Inhibition (%) [300 μM]
T1 sequence (P19327 1-422): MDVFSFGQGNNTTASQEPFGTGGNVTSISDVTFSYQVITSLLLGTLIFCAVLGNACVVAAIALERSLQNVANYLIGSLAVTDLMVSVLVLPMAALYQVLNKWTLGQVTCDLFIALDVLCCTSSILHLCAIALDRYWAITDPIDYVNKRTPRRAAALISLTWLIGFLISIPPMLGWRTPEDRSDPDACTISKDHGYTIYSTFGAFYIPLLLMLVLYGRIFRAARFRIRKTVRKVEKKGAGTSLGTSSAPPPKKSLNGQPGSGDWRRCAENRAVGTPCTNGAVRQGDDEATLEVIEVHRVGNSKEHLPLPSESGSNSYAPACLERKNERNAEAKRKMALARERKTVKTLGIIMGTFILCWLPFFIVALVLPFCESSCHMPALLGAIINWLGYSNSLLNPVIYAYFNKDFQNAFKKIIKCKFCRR

μ-opioid receptor [4] = target: T2, μ-opioid receptor (Rattus norvegicus, UniProt P33535); test: [3H]-DAMGO radioligand binding assay; conditions: for inhibition at 300 µM: read-out: μ-opioid Binding inhibition (%) [300 μM]; for Ki: μ-opioid Ki, [3H]-DAMGO, rat forebrain membranes, Ki ± SEM, 2 determinations
Cell viability assay = assay type: cell-based, human; conditions: human, SH-SY5Y cells
SH-SY5Y cells = test: Cell viability assay; assay type: cell-based, human; conditions: 48 h, SH-SY5Y
[5] = PAMPA-BBB permeability assay; assay type: in vitro ADME; conditions: for Papp at 16 h, 50 µM: PAMPA, pH 7.4; for BBB penetration estimation Prediction: PAMPA-BBB binning by -logPe
mice [6] = test: Tail suspension test; assay type: in vivo; conditions: 30 min before
mice [7] = test: Spontaneous locomotor activity; assay type: in vivo; conditions: 5 min counts
μ-opioid receptor [8] = target: T2, μ-opioid receptor; conditions: read-out: μ-opioid Ki; [3H]-DAMGO, rat forebrain membranes; cited from earlier work
hMAO B = conditions: read-out: IC50 hMAO B; cited from earlier work
hMAO A = conditions: cited from earlier work
mice [9] = test: Acetic acid induced writhing test; assay type: in vivo; conditions: for number of writhes vs VEH: acetic acid 0.75%
mice [10] = test: Hot plate test; assay type: in vivo; conditions: plate 52.5 °C; for reaction (latency) time against thermal stimulus vs VEH: 30 mg/kg i.p.
mice [11] = test: Elevated plus-maze test; assay type: in vivo
mice [12] = test: Rotarod; assay type: in vivo; conditions: 30 mg/kg i.p., cut-off 120 s
rats = conditions: cited from earlier work
[13] = target: benzodiazepine binding site (BDZ-bs) of the GABAA receptor; conditions: read-out: Ki for the BDZ-bs of the GABAA receptor; cited from earlier work
[14] = 10 mg/kg i.p., 30 min before, 5 min session

T2 sequence (P33535 whole entry): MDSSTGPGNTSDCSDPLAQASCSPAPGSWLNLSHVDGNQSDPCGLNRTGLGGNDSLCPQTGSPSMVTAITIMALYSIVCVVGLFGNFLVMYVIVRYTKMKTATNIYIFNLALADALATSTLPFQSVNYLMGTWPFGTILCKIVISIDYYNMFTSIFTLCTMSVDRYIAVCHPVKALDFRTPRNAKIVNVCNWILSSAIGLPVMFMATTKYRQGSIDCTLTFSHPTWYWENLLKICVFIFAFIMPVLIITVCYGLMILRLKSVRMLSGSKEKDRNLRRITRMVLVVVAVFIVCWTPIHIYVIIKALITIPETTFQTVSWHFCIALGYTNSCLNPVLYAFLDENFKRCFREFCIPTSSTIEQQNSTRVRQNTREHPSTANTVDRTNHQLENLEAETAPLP

Compound: O=C(/C=C/c1c(Cl)cccc1Cl)c1ccc(O)cc1O [2,6-dichloro-2′,4′-dihydroxychalcone]
- head-twitches in the 5-HT induced head-twitch test (mice [1]): significantly increased head-twitches
- lethality in the yohimbine-induced mortality test (mice [2]): enhanced the mouse lethality

Compound: O=C(/C=C/c1cccc(Br)c1)c1ccc(O)cc1O [3-bromo-2′,4′-dihydroxychalcone]
- head-twitches in the 5-HT induced head-twitch test (mice [1]): significantly increased head-twitches
- lethality in the yohimbine-induced mortality test (mice [2]): enhanced the mouse lethality

Compound: O=C(/C=C/c1ccccc1)c1ccccc1 [Compound 1, Chalcone]
- BDZ-bs Binding inhibition (%) [300 μM] [3]: ++++ (inhibition >90% (++++))
- Ki (5-HT1A receptor): 20.8 ± 1.5 µM
- inhibition at 300 µM (5-HT1A receptor): 60 to 90%
- inhibition at 300 µM (μ-opioid receptor [4]): 60 to 90%
- viability at 48 h, 20 µM (Cell viability assay): 95.9%
- concentration up to which cell viability was not affected (SH-SY5Y cells): 75 µM
- Papp at 16 h, 50 µM [5]: 26.3 ×10⁻⁶ cm/s
- BBB penetration estimation Prediction [5]: CNS+ (CNS+, -logPe < 5.6, high permeability)
- immobility time vs VEH (mice [6]; 10 mg/kg i.p.): significantly reduced
- immobility time vs VEH (mice [6]; 30 mg/kg i.p.): significantly reduced
- spontaneous locomotor activity vs VEH (mice [7]; 30 mg/kg i.p.): significant increase
- Ki (μ-opioid receptor [8]): 28.2 ± 9.9 µM
- IC50 (hMAO B): 1.41 ± 0.07 µM
- effect on hMAO A (hMAO A): no effect

Compound: COc1cccc(O)c1C(=O)/C=C/c1ccccc1 [Compound 5, (2E)-1-(2-hydroxy-6-methoxyphenyl)-3-phenyl-2-propen-1-one]
- BDZ-bs Binding inhibition (%) [300 μM] [3]: - (inhibition <20% (-))
- Ki (5-HT1A receptor): 13.3 ± 0.3 µM
- inhibition at 300 µM (5-HT1A receptor): > 90%
- inhibition at 300 µM (μ-opioid receptor [4]): 60 to 90%
- Ki (μ-opioid receptor [4]): 26.7 ± 1.6 µM
- immobility time vs VEH (mice [6]; 10 mg/kg i.p.): not active

Compound: O=C(/C=C/c1ccccc1)c1cc(Cl)ccc1O [Compound 6, (2E)-1-(5-chloro-2-hydroxyphenyl)-3-phenyl-2-propen-1-one]
- BDZ-bs Binding inhibition (%) [300 μM] [3]: ++ (inhibition 40–60% (++))
- inhibition at 300 µM (5-HT1A receptor): 40 to 60%
- inhibition at 300 µM (μ-opioid receptor [4]): 60 to 90%
- Ki (μ-opioid receptor [4]): 19.4 ± 3.5 µM
- number of writhes vs VEH (mice [9]; 10 mg/kg i.p.): significantly reduced
- reaction (latency) time against thermal stimulus vs VEH (mice [10]): Only chalcone 12 at 30 mg/kg caused significant increases

Compound: Cc1ccc(O)c(C(=O)/C=C/c2ccccc2)c1 [Compound 9, (2E)-1-(2-hydroxy-5-methylphenyl)-3-phenyl-2-propen-1-one]
- BDZ-bs Binding inhibition (%) [300 μM] [3]: +++ (inhibition 60–90% (+++))
- inhibition at 300 µM (5-HT1A receptor): 40 to 60%
- inhibition at 300 µM (μ-opioid receptor [4]): 60 to 90%
- Ki (μ-opioid receptor [4]): 46.3 ± 1.6 µM
- viability at 48 h, 20 µM (Cell viability assay): 88.5%
- Papp at 16 h, 50 µM [5]: 25.1 ×10⁻⁶ cm/s
- BBB penetration estimation Prediction [5]: CNS+ (CNS+, -logPe < 5.6, high permeability)
- percentage of open arm entries vs VEH (mice [11]; [14]): significantly increased
- percentage of time spent in open arms vs VEH (mice [11]; [14]): significantly increased
- number of total arm entries vs VEH (mice [11]; 30 mg/kg i.p.): significantly increased
- spontaneous locomotor activity vs VEH (mice [7]; 10 and 30 mg/kg i.p.): did not show significant differences

Compound: Cc1cc(C(=O)/C=C/c2ccccc2)c(O)c([N+](=O)[O-])c1 [Compound 12, (2E)-1-(5-methyl-3-nitro-2-hydroxyphenyl)-3-phenyl-2-propen-1-one]
- BDZ-bs Binding inhibition (%) [300 μM] [3]: + (inhibition 20–40% (+))
- inhibition at 300 µM (5-HT1A receptor): < 20%
- inhibition at 300 µM (μ-opioid receptor [4]): > 90%
- Ki (μ-opioid receptor [4]): 10.8 ± 3.6 µM
- viability at 48 h, 20 µM (Cell viability assay): 74.8%
- Papp at 16 h, 50 µM [5]: 33.9 ×10⁻⁶ cm/s
- BBB penetration estimation Prediction [5]: CNS+ (CNS+, -logPe < 5.6, high permeability)
- inhibition of constrictions compared to VEH (mice [9]; 3 mg/kg i.p.): 59.7%
- inhibition of constrictions compared to VEH (mice [9]; 10 mg/kg i.p.): 62.6%
- number of writhes vs VEH (mice [9]; 10 mg/kg i.p.): significantly reduced
- inhibition of constrictions compared to VEH (mice [9]; 30 mg/kg i.p.): 96.1%
- reaction (latency) time against thermal stimulus vs VEH (mice [10]): significant increases; also recorded: significantly increased
- spontaneous locomotor activity vs VEH (mice [7]; 10 and 30 mg/kg i.p.): None of the mice treated with chalcone 12 showed any failure in their locomotion
- balance on the Rotarod (mice [12]): did not produce neurotoxicity or motor impairment

Compound: O=C(/C=C/c1cccc([N+](=O)[O-])c1)c1ccccc1 [Compound 16, (2E)-3-(3-nitrophenyl)-1-phenyl-2-propen-1-one]
- BDZ-bs Binding inhibition (%) [300 μM] [3]: ++++ (inhibition >90% (++++))
- inhibition at 300 µM (5-HT1A receptor): 40 to 60%
- inhibition at 300 µM (μ-opioid receptor [4]): < 20%
- number of total arm entries vs VEH (mice [11]; [14]): significantly increased

Compound: CN(C)c1ccc(/C=C/C(=O)c2ccccc2)cc1 [Compound 20, (2E)-3-[4-(dimethylamino)phenyl]-1-phenyl-2-propen-1-one]
- BDZ-bs Binding inhibition (%) [300 μM] [3]: - (inhibition <20% (-))
- Ki (5-HT1A receptor): 59.6 ± 1.5 µM
- inhibition at 300 µM (5-HT1A receptor): 60 to 90%
- inhibition at 300 µM (μ-opioid receptor [4]): 60 to 90%
- Ki (μ-opioid receptor [4]): 23.8 ± 3.1 µM

Compound: CN(C)CCCN1c2ccccc2CCc2ccccc21 [IMP, imipramine hydrochloride, reference compound]
- immobility time vs VEH (mice [6]; 30 mg/kg i.p.): significantly reduced

Compound: O=C(/C=C/c1ccc(O)c(O)c1)c1ccc(O)cc1O [butein]
- effect in the plus-maze test (rats): anxiolytic-like effect

Compound: O=C(/C=C/c1ccc(O)cc1)c1ccc(O)cc1O [isoliquiritigenin, 2′,4′,4-trihydroxychalcone]
- Ki [13]: 0.45 µM
- effect in the plus-maze test (rats): anxiolytic-like effect

Compound: CN1CC[C@]23c4c5ccc(O)c4O[C@H]2[C@@H](O)C=C[C@H]3[C@H]1C5 [morphine, Morphine hydrochloride, reference compound]
- abdominal cramps (mice [9]; 6 mg/kg i.p.): no abdominal cramps
- latency time (mice [10]; 6 mg/kg i.p., 45 s cut-off): 42.6 s
